The values that follow are results of earlier work, collected in patent US20170258967A1, “COMPOSITIONS AND METHODS FOR DELIVERING AN AGENT TO A WOUND” (UNIVERSITY OF MEMPHIS RESEARCH FOUNDATION, priority 2014, published 2017).

The test system of this series is S. aureus.

As for `CCCCCCC/C=C\C(=O)O` [Cis-2-decenoic acid, Cis-2-Decenoic Acid], the “effect on S. aureus growth and biofilm formation” value was “inhibit S. aureus growth and biofilm formation”.
